The subject of data set [1] is rat hepatocytes. Nature of the data set: Hepatocyte assay for determination of metabolic stability. The note with it: after incubation with rat hepatocytes.
Method: Seven samples from the incubation solution are taken for the LC-MS analysis within a fixed time pattern, in order to determine the half-life (i.e. the degradation) of the particular compound. This half life is used to calculate various “Clearance” parameters (CL) and “Fmax” values (see below).
The CL and Fmax values are a measure of the phase 1 and phase 2 metabolism of the compounds in the hepatocytes. In order to minimize the influence of the organic solvent on the enzymes in the incubation batches, the concentration thereof is generally limited to 1% (acetonitrile) or 0.1% (DMSO).
For all species and breeds, a hepatocyte cell count in the liver of 1.1*10^8 cells/g of liver is expected.
The parameters calculated and the meanings thereof are: • Fmax well-stirred [%] maximum possible bioavailability after oral administration • Calculation: (1-CLblood well-stirred/QH)*100 • CLblood well-stirred [L/(h*kg)] calculated blood clearance (well-stirred model) • Calculation: (QH*CLintrinsic)/(QH+CL′intrinsic) • CL′intrinsic[ml/(min*kg)] maximum ability of the liver (of the hepatocytes) to metabolize a compound (assuming that the liver blood flow is not rate-limiting) • Calculation: CLintrinsic, apparent* species-specific hepatocyte count [1.1* 10^8/g liver]*species-specific liver weight [g/kg] • CL′intrinsic, apparent[ml/(min*mg)] normalizes the elimination constant by dividing it by the hepatocyte cell count x used (x*10^6/ml) • Calculation: kcl[1/min]/(cell count [x*10^6]/incubation volume [ml]) • (QH=species-specific liver blood flow).
The target of data set [2] is T1, human macrophage elastase (HME/hMMP-12) (Homo sapiens, UniProt P39900).
T1 construct: 0.5 nM HME; purchased R&D Systems 917-MP
Kind of data set: In vitro HME inhibition test (standard or high-sensitivity). As to conditions: standard or high-sensitivity HME inhibition test; read-out: HME/hMMP-12 IC50. It counts as biochemical. The protocol: The potency of the compounds according to the invention with respect to HME (MMP-12) is determined in an in vitro inhibition test. The HME-mediated amidolytic cleavage of a suitable peptide substrate leads to an increase in fluorescent light therein. The signal intensity of the fluorescent light is directly proportional to the enzyme activity. The active concentration of a test compound at which half the enzyme is inhibited (50% signal intensity of the fluorescent light) is reported as the IC50 value.
In a 384 hole microtiter plate, in a total test volume of 41 μl, the test buffer (0.1 M HEPES pH 7.4, 0.15 M NaCl, 0.03 M CaCl2, 0.004 mM ZnCl2, 0.02 M EDTA, 0.005% Brij®), the enzyme (0.5 nM HME; from R&D Systems, 917-MP, autocatalytic activation according to the manufacturer's instructions) and the intramolecularly quenched substrate [5 μM Mca-Pro-Leu-Gly-Leu-Glu-Glu-Ala-Dap(Dnp)-NH2; Bachem, M-2670] are incubated in the absence and presence of the test substance (as a solution in DMSO) at 37° C. for two hours. The fluorescence intensity of the test mixtures is measured (excitation […], emission 393 nm). The IC50 values are ascertained by plotting the fluorescent light intensity against the active ingredient concentration.
In this case, an enzyme concentration ten times lower is used (final concentration, for example, 0.05 nM) in order to achieve an elevated test sensitivity. The incubation period chosen for the test is correspondingly longer (for example 16 hours).

A short description of data set [3]: Determination of solubility in PBS buffer pH 6.5. As to conditions: PBS buffer pH 6.5, 1% DMSO, room temperature; for Solubility: 24 h; for solubility at 24 h: PBS buffer, pH 6.5, aqueous buffer, kinetic from dmso stock.
Method: The test substance is dissolved in DMSO. An aliquot is taken from this solution and introduced into PBS buffer pH 6.5 (DMSO content: 1%). This solution/suspension is agitated at room temperature for 24 h. After ultracentrifugation at 114000 g for 30 min, the supernatant is removed, diluted with acetonitrile/water 8:2 and analysed by LC-MSMS. Quantification is effected by means of a five-point calibration curve of the test compound in DMSO.

Converted amounts (≈) assume the structure as drawn.

Usually Solubility stands for the concentration that dissolves in the medium under given conditions. A lower Solubility goes with a poorly soluble substance. The term solubility denotes how much of the substance goes into solution per volume. Low readings indicate a poorly soluble substance, high ones a readily soluble substance.

T1 sequence (P39900 106-470): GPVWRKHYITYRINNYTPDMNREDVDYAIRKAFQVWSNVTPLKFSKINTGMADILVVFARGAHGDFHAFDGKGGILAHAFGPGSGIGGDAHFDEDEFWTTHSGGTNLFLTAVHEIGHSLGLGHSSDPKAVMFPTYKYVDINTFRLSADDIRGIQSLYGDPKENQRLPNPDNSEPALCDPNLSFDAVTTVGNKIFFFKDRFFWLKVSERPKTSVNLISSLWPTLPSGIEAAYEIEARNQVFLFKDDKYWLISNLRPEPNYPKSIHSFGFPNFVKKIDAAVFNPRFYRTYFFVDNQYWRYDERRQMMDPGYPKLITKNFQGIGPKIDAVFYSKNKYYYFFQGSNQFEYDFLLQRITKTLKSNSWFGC

On to `O=C(O)[C@@H]1[C@@H](Cn2nnc3ccccc3c2=O)CC[C@H]1C(=O)c1ccc(OCCC2CCOCC2)cc1` (racemic) [Example 5, (+)-(1RS,2SR,5RS)-2-[(4-Oxo-1,2,3-benzotriazin-3(4H)-yl)methyl]-5-{4-[2-(tetrahydro-2H-pyran-4-yl)ethoxy]benzoyl}cyclopentanecarboxylic acid], for which, in data set [1], the “CLblood (calculated blood clearance, well-stirred)” value is 14.5 mL/min/kg and the “Fmax (maximum possible bioavailability after oral administration, well-stirred)” value (shortened to “Fmax”) is on record as 79.2%. Consider `O=C(O)[C@@H]1[C@@H](Cn2nnc3ccccc3c2=O)CC[C@H]1C(=O)c1ccc(OCCC2CCOCC2)cc1` (stereo in doubt) [Example 6, (−)-(1RS,2SR,5RS)-2-[(4-Oxo-1,2,3-benzotriazin-3(4H)-yl)methyl]-5-{4-[2-(tetrahydro-2H-pyran-4-yl)ethoxy]benzoyl}cyclopentanecarboxylic acid], for which the IC50 in data set [2] amounted to 80 nM. This compound also gave a Solubility in data set [3] of 354.9 µg/mL (≈ 702 µM). As for `Cc1ccc2nnn(C[C@H]3CC[C@@H](C(=O)c4ccc(OCC5CCOCC5)cc4)[C@@H]3C(=O)O)c(=O)c2c1` (single isomer, unassigned) [Example 17, (+)-(1RS,2SR,5RS)-2-[(6-Methyl-4-oxo-1,2,3-benzotriazin-3(4H)-yl)methyl]-5-[4-(tetrahydro-2H-pyran-4-ylmethoxy)benzoyl]cyclopentanecarboxylic acid], the IC50 in data set [2] was determined as 0.03 nM. This compound registered a solubility at 24 h in data set [3] of 250 µg/mL (≈ 494 µM).

For `O=C(O)[C@@H]1[C@@H](Cn2nnc3ccc(C(F)(F)F)cc3c2=O)CC[C@H]1C(=O)c1ccc(OCCC2CCOCC2)cc1` (racemic) [Example 11, (+)-(1RS,2SR,5RS)-2-{[4-Oxo-6-(trifluoromethyl)-1,2,3-benzotriazin-3(4H)-yl]methyl}-5-{4-[2-(tetrahydro-2H-pyran-4-yl)ethoxy]benzoyl}cyclopentanecarboxylic acid], in data set [1], the “CLblood (calculated blood clearance, well-stirred)” value was 5 mL/min/kg and the “Fmax” value was 92.9%. Regarding `O=C(O)[C@@H]1[C@@H](Cn2nnc3ccc(C(F)(F)F)cc3c2=O)CC[C@H]1C(=O)c1ccc(OCCC2CCOCC2)cc1` (stereo in doubt) [Example 12, (−)-(1RS,2SR,5RS)-2-{[4-Oxo-6-(trifluoromethyl)-1,2,3-benzotriazin-3(4H)-yl]methyl}-5-{4-[2-(tetrahydro-2H-pyran-4-yl)ethoxy]benzoyl}cyclopentanecarboxylic acid], the IC50 in data set [2] was 90 nM. The compound further displayed a Solubility in data set [3] of 240 µg/mL (≈ 418 µM). `O=C(O)[C@@H]1[C@@H](Cn2nnc3ccc(C(F)(F)F)cc3c2=O)CC[C@H]1C(=O)c1ccc(SCC2CCOCC2)cc1` (racemic) [Example 15, (+)-(1RS,2SR,5RS)-2-{[4-Oxo-6-(trifluoromethyl)-1,2,3-benzotriazin-3(4H)-yl]methyl}-5-{4-[(tetrahydro-2H-pyran-4-ylmethyl)sulphanyl]benzoyl}cyclopentanecarboxylic acid] gave a Solubility in data set [3] of 100 µg/mL (≈ 174 µM). Moreover, in data set [1], the “CLblood (calculated blood clearance, well-stirred)” value is 2.67 mL/min/kg and the “Fmax” value was 96.1%.

For the compound `Cc1ccc2nnn(C[C@H]3CC[C@@H](C(=O)c4ccc(OCC5CCOCC5)cc4)[C@@H]3C(=O)O)c(=O)c2c1` (single isomer, unassigned) [Example 18, (−)-(1RS,2SR,5RS)-2-[(6-Methyl-4-oxo-1,2,3-benzotriazin-3(4H)-yl)methyl]-5-[4-(tetrahydro-2H-pyran-4-ylmethoxy)benzoyl]cyclopentanecarboxylic acid], the IC50 in data set [2] was 3.3 nM. Take `Cc1ccc2nnn(C[C@H]3CC[C@@H](C(=O)c4ccc(OCC5CCOCC5)cc4)[C@@H]3C(=O)O)c(=O)c2c1` (racemic) [Example 18, (−)-(1RS,2SR,5RS)-2-[(6-Methyl-4-oxo-1,2,3-benzotriazin-3(4H)-yl)methyl]-5-[4-(tetrahydro-2H-pyran-4-ylmethoxy)benzoyl]cyclopentanecarboxylic acid]: in data set [3], the Solubility is 330 µg/mL (≈ 653 µM). For the compound “(−)-(1RS,2SR,5RS)-2-{[4-Oxo-6-(trifluoromethyl)-1,2,3-benzotriazin-3(4H)-yl]methyl}-5-[4-(tetra-hydro-2H-pyran-4-ylmethoxy)benzoyl]cyclopentanecarboxylic acid [Example 9]”, the IC50 in data set [2] turned out to be 42 nM. Same read-out and setting: as for `Cc1ccc2nnn(C[C@@H]3CC[C@H](C(=O)c4ccc(OCC5CCOCC5)cc4)[C@H]3C(=O)O)c(=O)c2c1` (racemic) [Example 16, (+/−)-(1RS,2SR,5RS)-2-[(6-Methyl-4-oxo-1,2,3-benzotriazin-3(4H)-yl)methyl]-5-[4-(tetrahydro-2H-pyran-4-ylmethoxy)benzoyl]cyclopentanecarboxylic acid], the figure is 0.17 nM. Regarding `O=C(O)[C@@H]1[C@@H](Cn2nnc3ccc(C(F)(F)F)cc3c2=O)CC[C@H]1C(=O)c1ccc(SCC2CCOCC2)cc1` (single isomer, unassigned) [Example 14, (−)-(1RS,2SR,5RS)-2-{[4-Oxo-6-(trifluoromethyl)-1,2,3-benzotriazin-3(4H)-yl]methyl}-5-{4-[(tetrahydro-2H-pyran-4-ylmethyl)sulphanyl]benzoyl}cyclopentanecarboxylic acid], in data set [2], the IC50 is 10 nM. Moreover, the solubility at 24 h in data set [3] came to 80 µg/mL (≈ 139 µM). With `O=C(O)[C@H]1[C@H](Cn2nnc3ccc(C(F)(F)F)cc3c2=O)CC[C@@H]1C(=O)c1ccc(SCC2CCOCC2)cc1` (racemic) [Example 13, (+/−)-(1RS,2SR,5RS)-2-{[4-Oxo-6-(trifluoromethyl)-1,2,3-benzotriazin-3 (4H)-yl]methyl}-5-{4-[(tetrahydro-2H-pyran-4-ylmethyl)sulphanyl]benzoyl}cyclopentanecarboxylic acid], the IC50 in data set [2] was 0.48 nM. Take `Cc1ccc2nnn(C[C@H]3CC[C@@H](C(=O)c4ccc(OCCC5CCOCC5)cc4)[C@@H]3C(=O)O)c(=O)c2c1` (racemic) [Example 20, (+)-(1RS,2SR,5RS)-2-[(6-Methyl-4-oxo-1,2,3-benzotriazin-3(4H)-yl)methyl]-5-{4-[2-(tetrahydro-2H-pyran-4-yl)ethoxy]benzoyl}cyclopentanecarboxylic acid]: in data set [1], the “CLblood (calculated blood clearance, well-stirred)” value was 12.8 mL/min/kg and the “Fmax” value was 81.8%. For the compound `Cc1ccc2nnn(C[C@H]3CC[C@@H](C(=O)c4ccc(OCCC5CCOCC5)cc4)[C@@H]3C(=O)O)c(=O)c2c1` (single isomer, unassigned) [Example 21, (−)-(1RS,2SR,5RS)-2-[(6-Methyl-4-oxo-1,2,3-benzotriazin-3(4H)-yl)methyl]-5-{4-[2-(tetrahydro-2H-pyran-4-yl)ethoxy]benzoyl}cyclopentanecarboxylic acid], the IC50 in data set [2] was 78 nM.

(Values after patent publication US20170114049A1, “2,5-DISUBSTITUTED CYCLOPENTANE CARBOXYLIC ACIDS FOR THE TREATMENT OF RESPIRATORY TRACT DISEASES” (BAYER PHARMA AKTIENGESELLSCHAFT, priority 2014, published 2017).)
